Patent US9771378B2 (Denali Therapeutics, Inc., priority 2014, dated 2017)

Test system: Aβ42 (human neuroglioma H4 cells expressing human wild type APP751)
Experiment: In vitro cell screening assay with sandwich ELISA quantification of Aβ42 peptide
Assay type: cell-based
Conditions: H4 cells stably expressing human wild type APP751; Pro293 chemically defined medium; compounds 0.003-10 μM; incubated overnight (16-18 h); supernatant Aβ42 by sandwich ELISA; normalized to DMSO and DAPT; read-out: Aβ42 H4 Prot Fre IC50
Procedure, shortened: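 Aβ42 in supernatants was quantified by sandwich ELISA with C-terminal-specific capture and 4G8-HRP detection, absorbance at 450 nm. Stable APP751-expressing human H4 cells received compound at 0.003-10 μM (0.33% DMSO) overnight (16-18 h). IC50 was derived from percent-of-DMSO-control data by nonlinear variable-slope fit.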

Row | Structure (SMILES) | IC50
1 | Cc1cn(-c2ccc(Nc3ncc4c(n3)N(C)C(c3cc(F)cc(F)c3)CO4)cc2)cn1 (single isomer, unassigned; (-)) [Example 23A] | 2040 nM
2 | COc1cc(Nc2ncc3c(n2)N(C)C(c2cc(F)cc(F)c2)CO3)ccc1-n1cnc(Cl)c1 (single isomer, unassigned; (-)) [Example 204A] | 433 nM
3 | Cc1cc(-c2ccc(Nc3ncc4c(n3)N(C)C(c3cc(F)c(F)c(F)c3)CO4)cc2)ccn1 (single isomer, unassigned; (+)) [Example 37A] | 59 nM
4 | COc1ccc(C2COc3cnc(Nc4cnc(-n5cnc(C)c5)c(OC)c4)nc3N2C)c(Cl)c1 (single isomer, unassigned; (+)) [Example 209A] | 21 nM
5 | Cc1cn(-c2ccc(Nc3ncc4c(n3)N3CCOC[C@@H]3CO4)cc2F)cn1 [Example 300] | 781 nM
6 | Cc1cn(-c2ccc(Nc3ncc4c(n3)N(C)C(C)(C)CO4)cc2F)cn1 [Example 255] | 488 nM
7 | COc1cc(Nc2ncc3c(n2)N(C)C(c2ccc(F)cc2F)CO3)cnc1-n1cnc(C)c1 (single isomer, unassigned; (+)) [Example 186A] | 18 nM
8 | COc1cc(Nc2ncc3c(n2)N(C)C(c2cc(F)cc(F)c2)CO3)ccc1-n1cnc(C)n1 (single isomer, unassigned; (-)) [Example 244B] | 935 nM
9 | Cc1cn(-c2ccc(Nc3ncc4c(n3)N(C)C(c3cc(F)c(F)c(F)c3)CO4)cc2F)cn1 (racemic) [Example 38] | 32 nM
10 | Cc1cc(-c2ccc(Nc3ncc4c(n3)N(C)C(c3cc(F)cc(F)c3)CO4)cc2F)ccn1 (racemic) [Example 41] | 63 nM
11 | COc1cc(Nc2ncc3c(n2)N(C)C(c2cc(F)cc(F)c2)CO3)ncc1-n1cnc(C)c1 (single isomer, unassigned; (-)) [Example 220A] | > 3000 nM
12 | COc1cc(Nc2ncc3c(n2)N(C)C(C2CCC(F)(F)CC2)CO3)cnc1-n1cnc(C)c1 (single isomer, unassigned; (-)) [Example 221B] | 325 nM
13 | Cc1cn(-c2ccc(Nc3ncc4c(n3)N(C)C(c3ccc(F)cc3C(F)(F)F)CO4)cc2F)cn1 (single isomer, unassigned; (+)) [Example 99A] | 206 nM
14 | COc1nc(Nc2ncc3c(n2)N(C)C(c2cc(F)cc(F)c2)CO3)c(F)cc1-c1cnn(C)c1 (racemic) [Example 197] | > 3000 nM
15 | COc1cc(Nc2ncc3c(n2)N(C)C(c2cc(F)cc(F)c2)CO3)ccc1-n1cnc(C)c1 (racemic) [Example 30] | 18 nM
16 | Cc1cc(-c2ccc(Nc3ncc4c(n3)N(C)C(c3cc(F)c(F)c(F)c3)CO4)cc2)ccn1 (racemic) [Example 37] | 103 nM
17 | Cc1cn(-c2ccc(Nc3ncc4c(n3)N(C)C(c3cc(F)cc(F)c3)CO4)nc2C#N)cn1 (single isomer, unassigned; (+)) [Example 192B, (+)-6-((7-(3,5-difluorophenyl)-8-methyl-7,8-dihydro-6H-pyrimido [5,4-b] [1, 4]oxazin-2-yl)amino)-3-(4-methyl-1H-imidazol-1-yl) picolinonitrile] | 576 nM
18 | COc1cc(Nc2ncc3c(n2)N(C)C(C(F)(F)F)CO3)ccc1-n1cnc(Cl)c1 (single isomer, unassigned; (+)) [Example 228A] | 331 nM
19 | Cc1cc(-c2ccc(Nc3ncc4c(n3)N(C)C(Cc3ccccc3)CO4)cc2F)ccn1 (single isomer, unassigned; (-)) [Example 57B] | 880 nM
20 | COc1cc(Cl)c(C2COc3cnc(Nc4ccc(-n5cnc(C)c5)c(OC)c4)nc3N2C)cc1Cl (single isomer, unassigned; (-)) [Example 174A] | 150 nM
21 | COc1cc(Nc2ncc3c(n2)N2CCC(F)(F)C2CO3)cnc1-n1cnc(C)c1 (single isomer, unassigned; (-)) [Example 305B, (−)-7,7-difluoro-N-(5-methoxy-6-(4-methyl-1H-imidazol-1-yl)pyridin-3-yl)-6a, 7,8,9-tetrahydro-6H-pyrimido [5,4-b] pyrrolo [1,2-d] [1, 4] oxazin-2-amine] | 582 nM
22 | COc1cc(Nc2ncc3c(n2)N2CCC(F)(F)C2CO3)ccc1-n1cnc(C)c1 (single isomer, unassigned; (+)) [Example 304B, (+)-7,7-difluoro-N-(3-methoxy-4-(4-methyl-1H-imidazol-1-yl)phenyl)-6a, 7,8,9-tetrahydro-6H-pyrimido [5,4-b] pyrrolo [1,2-d] [1, 4] oxazin-2-amine] | 75 nM
23 | COc1cc(Nc2ncc3c(n2)N(C)C2(CC2)CO3)cnc1-n1cnc(C)c1 [Example 260] | 213 nM
24 | COc1cc(Nc2ncc3c(n2)N(C)C(c2ccc(Cl)cc2C(F)(F)F)CO3)ccc1-c1ccnc(C)c1 (single isomer, unassigned; (+)) [Example 107B] | 174 nM
25 | COc1cc(Nc2ncc3c(n2)N(C)[C@@H](CC2CC2)CO3)cnc1-n1cnc(C)c1 [Example 218] | 39 nM
26 | COc1nc(Nc2ncc3c(n2)N(C)C(c2cc(F)cc(F)c2)CO3)ccc1-c1cnn(C)c1 (single isomer, unassigned; (+)) [Example 184B] | > 3000 nM

Row | Structure (SMILES) | IC50
27 | COc1cc(Nc2ncc3c(n2)N(C)C(C2CCC(F)(F)CC2)CO3)ccc1-n1cnc(C)c1 (single isomer, unassigned; (-)) [Example 216A] | 320 nM
28 | COc1cc(Nc2ncc3c(n2)N(C)C(c2cc(F)ccc2C(F)(F)F)CO3)ccc1-n1cnc(C)c1 (single isomer, unassigned; (+)) [Example 105B] | 51 nM
29 | COc1cc(Nc2ncc3c(n2)N(C)C(c2ccc(F)cc2)CO3)ccc1-n1cnc(C)c1 (single isomer, unassigned; (+)) [Example 49B] | 9 nM
30 | COc1cc(Nc2ncc3c(n2)N(C)C(C2COC2)CO3)ccc1-n1cnc(C)c1 (single isomer, unassigned; (-)) [Example 241A] | 390 nM
31 | COc1cc(Nc2ncc3c(n2)N(C)[C@@H](C2CC2)CO3)cnc1-n1cnc(C)c1 [Example 225] | 33 nM
32 | COc1cc(Nc2ncc3c(n2)N(C)C2(CCCC2)CO3)cnc1-c1cnn(C)c1 [Example 266] | > 3000 nM
33 | Cc1cn(-c2ccc(Nc3ncc4c(n3)N(C)C(c3cc(F)c(F)c(F)c3)CO4)cc2F)cn1 (single isomer, unassigned; (-)) [Example 118B] | 1340 nM
34 | COc1cc(Nc2ncc3c(n2)N(C)C(c2cc(F)cc(F)c2)CO3)ccc1-n1cnc(Cl)c1 (single isomer, unassigned; (+)) [Example 204B] | 19 nM
35 | Cc1cn(-c2ccc(Nc3ncc4c(n3)N(C)C(C)(C)CO4)nc2)cn1 [Example 262] | > 3000 nM
36 | COc1cc(Nc2ncc3c(n2)N(C)C(c2cc(F)c(F)cc2F)CO3)cnc1-n1cnc(C)c1 (single isomer, unassigned; (+)) [Example 181B] | 392 nM
37 | COc1cc(Nc2ncc3c(n2)N(C)C(C2CC(F)(F)C2)CO3)ccc1-n1cnc(C)c1 (single isomer, unassigned; (+)) [Example 212B] | 61 nM
38 | COc1cc(Nc2ncc3c(n2)N(C)C(C2(C(F)(F)F)CC2)CO3)cnc1-n1cnc(C)c1 (single isomer, unassigned; (-)) [Example 247A] | 252 nM
39 | Cc1cc(-c2ccc(Nc3ncc4c(n3)N(C)C(c3cc(F)cc(F)c3)CO4)cc2F)ccn1 (single isomer, unassigned; (+)) [Example 41A] | 77 nM
40 | Cc1cc(-c2ccc(Nc3ncc4c(n3)N(C)C(c3ccccc3C)CO4)cc2)ccn1 (single isomer, unassigned; (-)) [Example 29A] | 1100 nM
41 | Cc1cc(-c2ccc(Nc3ncc4c(n3)N(C)C(c3ccc(F)cc3Cl)CO4)cc2F)ccn1 (single isomer, unassigned; (-)) [Example 102B] | 1350 nM
42 | COc1cc(Nc2ncc3c(n2)N(C)C(c2cc(F)c(F)cc2Cl)CO3)ccc1-n1cnc(C)c1 (single isomer, unassigned; (+)) [Example 103A] | 19 nM
43 | COc1cc(Nc2ncc3c(n2)N(C)C(c2ccc(F)cc2Cl)CO3)ccc1-n1cnc(C)c1 (single isomer, unassigned; (+)) [Example 93B] | 32 nM
44 | Cc1cc(-c2ccc(Nc3ncc4c(n3)N(C)C(c3ccc(F)cc3)CO4)cc2F)ccn1 (single isomer, unassigned; (+)) [Example 56A] | 71 nM
45 | COc1cc(Nc2ncc3c(n2)N(C)C(C2CCC(F)(F)CC2)CO3)ccc1-n1cnc(C)c1 (single isomer, unassigned; (+)) [Example 216B] | 33 nM
46 | Cc1cn(-c2ccc(Nc3ncc4c(n3)N(C)C(c3ccc(Cl)cc3Cl)CO4)cc2F)cn1 (single isomer, unassigned; (-)) [Example 96B] | 879 nM
47 | COc1cc(Nc2ncc3c(n2)N2CC(F)(F)C[C@@H]2CO3)ccc1-n1cnc(C)c1 [Example 303, (R)-8,8-difluoro-N-(3-methoxy-4-(4-methyl-1H-imidazol-1-yl)phenyl)-6a, 7,8,9-tetrahydro-6H-pyrimido [5,4-b] pyrrolo [1,2-d] [1, 4] oxazin-2-amine] | 131 nM
48 | Cc1cn(-c2ccc(Nc3ncc4c(n3)N(C)C(c3ccccc3C)CO4)cc2F)cn1 (racemic) [Example 34] | 44 nM
49 | COc1cc(Nc2ncc3c(n2)N(C)C(c2cc(C(F)(F)F)ccc2Cl)CO3)ccc1-n1cnc(C)c1 (single isomer, unassigned; (-)) [Example 88B] | 286 nM
50 | COc1cc(Nc2ncc3c(n2)N(C)C(c2ccc(F)cc2C)CO3)ccc1-n1cnc(C)c1 (single isomer, unassigned; (-)) [Example 117A] | 140 nM
51 | CN1c2nc(Nc3ccc(C#N)cc3)ncc2OCC1C(F)(F)F (single isomer, unassigned; (+)) [Example 226A, (+)-4-((8-methyl-7-(trifluoromethyl)-7,8-dihydro-6H-pyrimido [5,4-b] [1, 4]oxazin-2-yl)amino) benzonitrile] | > 3000 nM
